The test system of assay [1] is platelet aggregation induced by the TXA2 agonist U46619 in human platelet-rich plasma (PRP). The assay is described as follows: Platelet aggregation in man induced by the TXA2 agonist U46619. The class given is cell-based. The following applies: U46619 1 μM, read-out: IC50, inhibition of platelet aggregation induced by the TXA2 agonist. The method, then:
(§1) Venous blood is obtained from human volunteers who have not taken aspirin for at least 14 days prior to the experiment. The blood is removed over sodium citrate (0.109 M) (1 vol. of citrate over 9 vol. of blood). Platelet-rich plasma (PRP) is obtained by centrifugation (20° C.) at 200 g for 10 minutes. The number of platelets is on average 250000 PL/mm^3. The PRP is stored at room temperature until the test and is used within 2 hours of having been taken. The TXA2 agonist U46619 is used at a concentration of 1 μM and 5-hydroxytryptamine is used at a concentration of 10 μM, the latter in the presence of 0.3 μM adenosine diphosphate and 1 μM adrenalin.

The test system of assay [2] is platelet aggregation produced by 5-hydroxytryptamine in human platelet-rich plasma (PRP). Nature of the assay: Platelet aggregation in man induced by 5-hydroxytryptamine. The class given is cell-based. The settings on record: 5-hydroxytryptamine 10 μM in the presence of 0.3 μM adenosine diphosphate and 1 μM adrenalin, read-out: IC50, inhibition of platelet aggregation produced by 5-hydroxytryptamine. How it is done:
as §1

Each structure is given as a SMILES string. pIC50: −log10 of the molar value.

A word on the pIC50: it is the IC50 on a negative log10 scale, so that one unit is a factor of ten. For the compound `CN(C)CCCOc1ccccc1CCc1cc(CCNS(=O)(=O)c2ccc(Cl)cc2)cc(CCC(=O)O)c1` [Example 2, 3-[3-(2-{[(4-Chlorophenyl)sulphonyl]amino}ethyl)-5-(2-{2-[3-(dimethylamino)propoxy]phenyl}ethyl)phenyl]propanoic acid], the pIC50 in assay [1] is 5.48; in assay [2], 6.02.
